These are literature values, as cited in patent publication US8076449B2, “Therapeutic agents of colivelin for neurodegenerative diseases” (Tomohiro Chiba, priority 2004, dated 2011).

For series [1], the system named is F11 cells transformed with M146L-PS1. To be noted: as already reported; cited from earlier work.
Series [2] deals with primary cultured cortical neurons treated with Aβ (1-43). To be noted: Aβ (1-43) neurotoxicity; stated as known fact; cited from earlier work.

Take “HNG: Humanin (HN) derivative whose serine residue at the position 14 is replaced by glycine (MAPRGFSCLLLLTGEIDLPVKRRA; Humanin; UniProt Q8IVG9 1-24, looked up, variant S14G)”: the “concentration completely suppressing cell death caused by M146L-PS1” value in series [1] is reported as 100 nM. In series [2], the “concentration exerting complete protective action” value is reported as 10 nM.
